Experimental data from PubChem BioAssay AID1919010 (Molecular Pharmacology Branch, DTP, NCI, 2023).

Tested on: Hs578T complex spheroid growth, percent test/control
Test: Anticancer human tumor Hs578T cell line growth inhibition [AhR];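 further: luminescent viability signal as a proxy for spheroid growth; spheroids exposed to agents for one week after three days of growth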
Settings: for IC50: curve of first compound; for viability, T/C: stronger effect = lower value
In short: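 Spheroids combined tumor cells with HUVEC endothelial cells and human MSCs as stroma. AhR antagonists were paired with standard or investigational drugs, each dosed in half-log steps down from near clinical Cmax, or from 10 microM where Cmax was unknown.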

[1] = second compound 0.1 µM, first compound 0.0316 µM
[2] = second compound 0.1 µM, first compound 0.1 µM
[3] = second compound 0.1 µM, first compound 0.316 µM
[4] = second compound 0.1 µM, first compound 1 µM
[5] = second compound 0.1 µM, first compound 3.16 µM
[6] = second compound 0.1 µM, first compound 10 µM
[7] = second compound 0.316 µM, first compound 0.0316 µM
[8] = second compound 0.316 µM, first compound 0.1 µM
[9] = second compound 0.316 µM, first compound 0.316 µM
[10] = second compound 0.316 µM, first compound 1 µM
[11] = second compound 0.316 µM, first compound 3.16 µM
[12] = second compound 0.316 µM, first compound 10 µM
[13] = second compound 1 µM, first compound 0.0316 µM
[14] = second compound 1 µM, first compound 0.1 µM
[15] = second compound 1 µM, first compound 0.316 µM
[16] = second compound 1 µM, first compound 1 µM
[17] = second compound 1 µM, first compound 3.16 µM
[18] = second compound 1 µM, first compound 10 µM
[19] = second compound 3.16 µM, first compound 0.0316 µM
[20] = second compound 3.16 µM, first compound 0.1 µM
[21] = second compound 3.16 µM, first compound 0.316 µM
[22] = second compound 3.16 µM, first compound 1 µM
[23] = second compound 3.16 µM, first compound 3.16 µM
[24] = second compound 3.16 µM, first compound 10 µM
[25] = second compound 10 µM, first compound 0.0316 µM
[26] = second compound 10 µM, first compound 0.1 µM
[27] = second compound 10 µM, first compound 0.316 µM
[28] = second compound 10 µM, first compound 1 µM
[29] = second compound 10 µM, first compound 3.16 µM
[30] = second compound 10 µM, first compound 10 µM

IC50 (second compound 0.1 µM) [nM]	IC50 (second compound 0.316 µM) [nM]	IC50 (second compound 1 µM) [nM]	IC50 (second compound 3.16 µM) [nM]	IC50 (second compound 10 µM) [nM]	SMILES	viability, T/C [1] [%]	viability, T/C [2] [%]	viability, T/C [3] [%]	viability, T/C [4] [%]	viability, T/C [5] [%]	viability, T/C [6] [%]	viability, T/C [7] [%]	viability, T/C [8] [%]	viability, T/C [9] [%]	viability, T/C [10] [%]	viability, T/C [11] [%]	viability, T/C [12] [%]	viability, T/C [13] [%]	viability, T/C [14] [%]	viability, T/C [15] [%]	other results
4310	3740	> 10000	< 31.6	< 31.6	Nc1ccn(C2OC(CO)C(O)C2(F)F)c(=O)n1 (stereo not given) + Cc1ccccc1N=Nc1ccc(NC(=O)c2ccnn2C)c(C)c1	55.6	48.1	52.5	49.2	54	47.9	54	44.9	53.9	49.8	49.9	50	61	52	49.1	viability, T/C [16]: 46.9%; viability, T/C [17]: 48.1%; viability, T/C [18]: 56.8%; viability, T/C [19]: 48.7%; viability, T/C [20]: 47.3%; viability, T/C [21]: 47.4%; viability, T/C [22]: 47.9%; viability, T/C [23]: 45.9%; viability, T/C [24]: 44.6%; viability, T/C [25]: 45.1%; viability, T/C [26]: 46.1%; viability, T/C [27]: 35.6%; viability, T/C [28]: 36.2%; viability, T/C [29]: 37%; viability, T/C [30]: 41.4%
1850	1780	1860	1770	1500	O=C(C=Cc1cccc(S(=O)(=O)Nc2ccccc2)c1)NO + Cc1ccccc1N=Nc1ccc(NC(=O)c2ccnn2C)c(C)c1	99	107	94	77.5	26.2	0.74	105	108	94	74	26.9	0.66	109	104	96.5	viability, T/C [16]: 77.6%; viability, T/C [17]: 26.9%; viability, T/C [18]: 0.82%; viability, T/C [19]: 93.5%; viability, T/C [20]: 87.2%; viability, T/C [21]: 98.5%; viability, T/C [22]: 71.9%; viability, T/C [23]: 26.3%; viability, T/C [24]: 1.13%; viability, T/C [25]: 64.2%; viability, T/C [26]: 67.2%; viability, T/C [27]: 64%; viability, T/C [28]: 63.2%; viability, T/C [29]: 25.9%; viability, T/C [30]: 1.32%
> 10000	> 10000	> 10000	> 10000	> 10000	O=C(c1cc(Cc2n[nH]c(=O)c3ccccc23)ccc1F)N1CCN(C(=O)C2CC2)CC1 + Cc1ccccc1N=Nc1ccc(NC(=O)c2ccnn2C)c(C)c1	96.8	104	109	101	96.9	80.9	101	107	100	101	88.2	72.1	104	109	104	viability, T/C [16]: 99.6%; viability, T/C [17]: 104%; viability, T/C [18]: 81.3%; viability, T/C [19]: 96.9%; viability, T/C [20]: 97.7%; viability, T/C [21]: 94.9%; viability, T/C [22]: 96.8%; viability, T/C [23]: 85.9%; viability, T/C [24]: 72.3%; viability, T/C [25]: 66.8%; viability, T/C [26]: 70.7%; viability, T/C [27]: 76.5%; viability, T/C [28]: 69.3%; viability, T/C [29]: 67.6%; viability, T/C [30]: 63.5%
